Measured values as given in article PMC6098685 (Journal of the American Chemical Society, 2018).
pIC50: −log10 of the molar value.

What was measured:
[1] = target: T1, β-Glucocerebrosidase (GCase) (Homo sapiens, UniProt P04062); test: X-ray crystal structure; format: biochemical
T1 sequence (P04062 40-536): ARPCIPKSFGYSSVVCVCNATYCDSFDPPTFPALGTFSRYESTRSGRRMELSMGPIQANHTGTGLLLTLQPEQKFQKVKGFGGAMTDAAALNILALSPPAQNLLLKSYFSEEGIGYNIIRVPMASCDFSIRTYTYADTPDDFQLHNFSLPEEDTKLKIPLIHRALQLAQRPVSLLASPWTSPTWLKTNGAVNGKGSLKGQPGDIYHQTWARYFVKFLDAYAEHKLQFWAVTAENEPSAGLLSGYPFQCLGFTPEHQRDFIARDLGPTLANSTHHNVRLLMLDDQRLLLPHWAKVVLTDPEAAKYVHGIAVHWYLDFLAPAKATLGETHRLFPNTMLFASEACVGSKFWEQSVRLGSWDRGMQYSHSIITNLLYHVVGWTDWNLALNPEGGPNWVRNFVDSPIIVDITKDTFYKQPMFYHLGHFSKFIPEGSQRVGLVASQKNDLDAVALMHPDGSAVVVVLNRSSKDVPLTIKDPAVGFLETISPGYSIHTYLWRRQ

[2] = target: T1, β-Glucocerebrosidase (GCase); test: 4MU-β-Glc fluorescence enzyme assay; format: biochemical

SMILES | pIC50 [1] | pIC50 [2]
O=C(CCCCCCCCC#Cc1ccc2c(c1)CC(Nc1nc(-c3cccnc3)nc3ccccc13)C2)ON1C(=O)CCC1=O (centres unmarked) [compound 4, JZ-5029] | 7.25 | 
c1cncc(-c2nc(NC3Cc4ccccc4C3)c3ccccc3n2)c1 [compound 3, JZ-4109] |  | 8.10
